Laboratory results taken from PMC12163635, “Synthetic Retinoids for the Modulation of Genomic and Nongenomic Processes in Neurodegenerative Diseases” (ACS Omega, 2025).
Read-outs that look alike come from different tables or passages of the source.

Experiments:
[1] = target: T1, RARα (Homo sapiens, UniProt P10276); assay: Fluorescence competition binding assay (displacement of DC271); conditions: for Kd / Binding KD (± SD) RARα: 100 nM RAR and DC271 on plate; for Kd: read-out: Binding KD (± SD) RARα; for ΔGEXP RARα: experimental binding free energy from K D, ΔGexp=−RT ln K, 298.1 K
T1 construct: His6-3C-NusA (cleaved yes); made in house; host or cells: E. coli BL21(DE3), pET50b vector
T1 sequence (P10276 183-417 limits assumed): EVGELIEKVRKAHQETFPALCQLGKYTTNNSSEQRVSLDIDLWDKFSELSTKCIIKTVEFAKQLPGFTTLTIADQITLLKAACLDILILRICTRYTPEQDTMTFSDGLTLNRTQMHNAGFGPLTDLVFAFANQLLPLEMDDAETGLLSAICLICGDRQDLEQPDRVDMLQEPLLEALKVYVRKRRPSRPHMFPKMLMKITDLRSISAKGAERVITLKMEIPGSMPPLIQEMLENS
Procedure: (§1) Fluorescence competition assays were employed to determine the relative binding affinities of each synthetic retinoid toward the LBD of the RARs. The assay is based on the potential for competitive displacement of the inherently fluorescent retinoid DC271 from the LBP by a test nonfluorescent synthetic retinoid. Changes in the fluorescence were measured following the addition of a serial dilution of the test compound and the results were plotted to generate a binding curve. […] Assays were performed for both RARα and RARγ. […] Nonlinear least-squares regression analyses were performed to calculate binding affinities and reported as binding K D, the equilibrium dissociation constant between the RAR isoform and the test synthetic retinoid.
(§2) RARα/γ proteins were expressed in BL21(DE3) cells (NEB) transformed into pET50b (Novagen) and pOPINS3C vectors, respectively, carrying the gene construct and containing a His6-3C-NusA tag or His6-3C-SUMO tag used for solubility. Transformations were carried out under standard conditions using Quick Transformation Protocol (New England Biolabs). Successful transformants were grown overnight in 2xYT media (Melford) and frozen for storage at −80 °C in 50% glycerol. Expression cultures were inoculated from glycerol stocks into 25 mL of 2xYT media (Melford) with 50 μg/mL kanamycin or 100 μg/mL ampicillin (Sigma-Aldrich) and grown overnight with shaking (37 °C, 150 rpm). The overnight cultures were transferred into 1 L expression flasks (2xYT/ampicillin 100 μg/mL or 2xYT/kanamycin 50 μg/mL) and grown with shaking at 37 °C, 150 rpm. Induction was carried out at an OD600 of 0.6–0.8, with 1 mL of 1 M IPTG (1 mM in culture), before shaking overnight (20 h) at 18 °C. The resulting cultures were spun down into pellets using an Avanti Hi-Speed centrifuge (JLA 8.1000, 4000 rpm, 30 min, 4 °C), before the supernatant was removed and the bacterial pellet were frozen at −80 °C.
(§3) RARα/γ (pET50b or pOPINS3C, BL21(DE3) (NEB)) were resuspended from pellet with 20 mL Wash Buffer (20 mM Tris-HCl, 300 mM NaCl and 20 mM imidazole, pH 8) and the resulting suspension was sonicated on ice (40% power, 2 min, repeated twice with 1 min rest in-between) before centrifuging (Avanti Hi-Speed JA25.50, 20,000 rpm, 1 h, 4 °C). Supernatants were clarified using 0.45 μm syringe filters (Thermo Fisher Scientific). Affinity chromatography and size-exclusion (SEC) chromatography were carried out on AKTA Pure25 (Cytiva). Supernatants were loaded onto the HisTrap HP column (5 mL, Cytiva) and washed using 25 mL of wash Buffer. The column was washed with Wash Buffer until UV trace returned to baseline, before RARα/γ was eluted using a gradient of Elution Buffer (20 mM Tris-HCl, 300 mM NaCl, 500 mM imidazole pH 8). The resulting protein-containing fractions were analyzed by SDS-PAGE (200 V, 30 min) using SurePAGE Bis-Tris 12% precast gels (Genscript). Protein concentrations were estimated using absorbance at 280 nm on a DS-11 spectrophotometer (Denovix) with calculated molecular weights and extinction coefficients (Expasy). RAR proteins were cleaved overnight from 3C-NusA tag or 3C-SUMO-His tag using 1 Unit/100 μg protein of HRV3C protease (Thermo Fisher Scientific) at 4 °C. Solution after digestion was loaded onto a HiLoad 16/600 Superdex 75 prep-grade column (Cytiva) and cleaved RARα/γ was separated from the tag based on molecular weight and eluted from the column using SEC Buffer (20 mM Tris-HCl, 300 mM NaCl and 0.5 mM TCEP, pH 8) into 2 mL fractions. The resulting protein fractions were analyzed by SDS PAGE (200 V, 30 min) using SurePAGE Bis-Tris 12% precast gels (Genscript), before being concentrated to 5 mg/mL using centrifugal concentrators (Sartorius) and frozen at −80 °C in small aliquots for use in binding assays.

[2] = target: T2, RARα (Homo sapiens, UniProt P10276); assay: as above; conditions: stated for the RARs (RARα and RARγ) together; read-out: K D, binding to the RARs
T2 sequence (P10276 182-417): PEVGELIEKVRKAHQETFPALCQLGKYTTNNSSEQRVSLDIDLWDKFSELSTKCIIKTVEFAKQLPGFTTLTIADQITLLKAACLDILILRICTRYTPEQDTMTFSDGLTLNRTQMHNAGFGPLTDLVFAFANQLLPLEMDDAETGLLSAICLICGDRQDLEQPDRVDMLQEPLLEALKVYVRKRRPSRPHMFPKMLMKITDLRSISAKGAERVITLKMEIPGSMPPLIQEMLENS
Procedure: as §1, §2, §3

Structure (SMILES) | Kd [1] [µM] | ΔGEXP RARα [1] | Kd [2] [µM] | Binding KD (± SD) RARα [1]
CC1(C)CCC(C)(C)c2cc(C#Cc3ccc(C(=O)O)c(F)c3)ccc21 [Compound 13, 2-Fluoro-4-[2-(5,5,8,8-tetramethyl-5,6,7,8-tetrahydronaphthalen-2-yl)ethynyl]benzoic Acid] | 0.0136 | -10.8 kcal/mol | – | –
CC1(C)CCC(C)(C)c2cc(C#Cc3ccc(C(=O)O)cc3F)ccc21 [Compound 14, 3-Fluoro-4-[2-(5,5,8,8-tetramethyl-5,6,7,8-tetrahydronaphthalen-2-yl)ethynyl]benzoic Acid] | 0.0309 | -10.3 kcal/mol | – | –
CC1(C)CCC(C)(C)c2cc(C#Cc3cc(F)c(C(=O)O)c(F)c3)ccc21 [Compound 15, 2,6-Difluoro-4-[2-(5,5,8,8-tetramethyl-5,6,7,8-tetrahydronaphthalen-2-yl)ethynyl]benzoic Acid] | 0.00037 | -13.0 kcal/mol | – | –
CC1(C)CCC(C)(C)c2cc(C#Cc3ccc(C(=O)O)cc3Cl)ccc21 [Compound 16, 3-Chloro-4-[2-(5,5,8,8-tetramethyl-5,6,7,8-tetrahydronaphthalen-2-yl)ethynyl]benzoic Acid] | 0.0737 | -9.79 kcal/mol | – | –
Cc1cc2c(cc1C#Cc1ccc(C(=O)O)c(F)c1)C(C)(C)CCC2(C)C [Compound 17, 2-Fluoro-4-[2-(3,5,5,8,8-pentamethyl-5,6,7,8-tetrahydronaphthalen-2-yl)ethynyl]benzoic Acid] | 0.0284 | -10.40 kcal/mol | – | –
Cc1cc2c(cc1C#Cc1ccc(C(=O)O)cc1F)C(C)(C)CCC2(C)C [Compound 18, 3-Fluoro-4-[2-(3,5,5,8,8-pentamethyl-5,6,7,8-tetrahydronaphthalen-2-yl)ethynyl]benzoic Acid] | 0.0181 | -10.6 kcal/mol | – | –
Cc1cc2c(cc1C#Cc1cc(F)c(C(=O)O)c(F)c1)C(C)(C)CCC2(C)C [Compound 19, 2,6-Difluoro-4-[2-(3,5,5,8,8-pentamethyl-5,6,7,8-tetrahydronaphthalen-2-yl)ethynyl]benzoic Acid] | 0.00572 | -11.3 kcal/mol | – | –
COc1cc2c(cc1C#Cc1cc(F)c(C(=O)O)c(F)c1)C(C)(C)CCC2(C)C [Compound 22, 2,6-Difluoro-4-[2-(3-methoxy-5,5,8,8-tetramethyl-5,6,7,8-tetrahydronaphthalen-2-yl)ethynyl]benzoic Acid] | 0.105 | -9.55 kcal/mol | 0.1 to 1 | –
CC1(C)CCC(C)(C)c2cc(C#Cc3ccc(C(=O)O)cn3)ccc21 [Compound 23, 6-[2-(5,5,8,8-Tetramethyl-5,6,7,8-tetrahydronaphthalen-2-yl)ethynyl]pyridine-3-carboxylic Acid] | 0.0158 | -10.7 kcal/mol | – | –
CC1(C)CCC(C)(C)c2cc(C#Cc3ccc(C(=O)O)nc3)ccc21 [Compound 24, 5-[2-(5,5,8,8-Tetramethyl-5,6,7,8-tetrahydronaphthalen-2-yl)ethynyl]pyridine-2-carboxylic Acid] | 0.0871 | -9.64 kcal/mol | – | –
CC1(C)CCC(C)(C)c2cc(C#Cc3cnc(C(=O)O)cn3)ccc21 [Compound 25, 5-[2-(5,5,8,8-Tetramethyl-5,6,7,8-tetrahydronaphthalen-2-yl)ethynyl]pyrazine-2-carboxylic Acid] | 0.927 | -8.23 kcal/mol | – | –
Cc1cc2c(cc1C#Cc1ccc(C(=O)O)cn1)C(C)(C)CCC2(C)C [Compound 26, 6-[2-(3,5,5,8,8-Pentamethyl-5,6,7,8-tetrahydronaphthalen-2-yl)ethynyl]pyridine-3-carboxylic Acid] | 0.0483 | -10.0 kcal/mol | – | –
COc1cc2c(cc1C#Cc1ccc(C(=O)O)cn1)C(C)(C)CCC2(C)C [Compound 27, 6-[2-(3-Methoxy-5,5,8,8-tetramethyl-5,6,7,8-tetrahydronaphthalen-2-yl)ethynyl]pyridine-3-carboxylic Acid] | 1.82 | -7.84 kcal/mol | > 1 | –
Cc1cc2c(cc1C#Cc1ncc(C(=O)O)cn1)C(C)(C)CCC2(C)C [Compound 28, 2-[2-(3,5,5,8,8-Pentamethyl-5,6,7,8-tetrahydronaphthalen-2-yl)ethynyl]pyrimidine-5-carboxylic Acid] | 0.42 | -8.72 kcal/mol | 0.1 to 1 | –
COc1cc2c(cc1C#Cc1ncc(C(=O)O)cn1)C(C)(C)CCC2(C)C [Compound 29, 2-[2-(3-Methoxy-5,5,8,8-tetramethyl-5,6,7,8-tetrahydronaphthalen-2-yl)ethynyl]pyrimidine-5-carboxylic Acid] | – | Non-competitive Binding | – | noncompetitive binding
CC1(C)CCC(C)(C)c2nc(C#Cc3ccc(C(=O)O)cc3)cnc21 [Compound 30, 4-[2-(5,5,8,8-Tetramethyl-5,6,7,8-tetrahydroquinoxalin-2-yl)ethynyl]benzoic Acid] | 0.155 | -9.29 kcal/mol | 0.1 to 1 | –
CC1(C)CCC(C)(C)c2nc(C#Cc3ccc(C(=O)O)cc3F)cnc21 [Compound 31, 3-Fluoro-4-[2-(5,5,8,8-tetramethyl-5,6,7,8-tetrahydroquinoxalin-2-yl)ethynyl]benzoic Acid] | 0.203 | -9.13 kcal/mol | 0.1 to 1 | –
Cc1sc(-c2ccc(C(=O)O)cc2)nc1-c1cnc2c(n1)C(C)(C)CCC2(C)C [Compound 40, 4-[5-Methyl-4-(5,5,8,8-tetramethyl-5,6,7,8-tetrahydroquinoxalin-2-yl)-1,3-thiazol-2-yl]benzoic Acid] | 0.559 | -8.58 kcal/mol | 0.1 to 1 | –
Cc1sc(-c2ccc(C(=O)O)cn2)nc1-c1cnc2c(n1)C(C)(C)CCC2(C)C [Compound 41, 6-[5-Methyl-4-(5,5,8,8-tetramethyl-5,6,7,8-tetrahydroquinoxalin-2-yl)-1,3-thiazol-2-yl]pyridine-3-carboxylic Acid] | – | Non-competitive Binding | – | noncompetitive binding
Cc1sc(-c2ccc(C(=O)O)c(F)c2)nc1-c1cnc2c(n1)C(C)(C)CCC2(C)C [Compound 42, 2-Fluoro-4-[5-methyl-4-(5,5,8,8-tetramethyl-5,6,7,8-tetrahydroquinoxalin-2-yl)-1,3-thiazol-2-yl]benzoic Acid] | 0.162 | -9.27 kcal/mol | 0.1 to 1 | –
Cc1sc(-c2ccc(C(=O)O)cc2F)nc1-c1cnc2c(n1)C(C)(C)CCC2(C)C [Compound 43, 3-Fluoro-4-[5-methyl-4-(5,5,8,8-tetramethyl-5,6,7,8-tetrahydroquinoxalin-2-yl)-1,3-thiazol-2-yl]benzoic Acid] | 2.58 | -7.64 kcal/mol | > 1 | –
